Assay results: patent US12060588B2, “Methods of editing DNA methylation” (Whitehead Institute for Biomedical Research, priority 2016, dated 2024)

System: BDNF promoter IV / BDNF expression
Assay: BDNF expression in mouse cortical neurons (RT-qPCR)
Format: cell-based
Description: FIGS. 3A-3E depict targeted demethylation of BDNF promoter IV by dCas9-Tet1 to activate BDNF in neurons. FIG. 3A provides a schematic representation of targeting BDNF promoter IV by dCas9-Tet1 (dC-T) with specific gRNAs to erase methylation and activate BDNF expression. […] Bars are mean t SD of three biological replicates. FIG. 3C provides representative confocal images for BDNF induction in FIG. 3B. Top panel: BDNF expression was induced by 50 mM KCl treatment for 6 hrs. […] Stained in red for MAP2 (top two panels) or Cherry (bottom two panels), green for BDNF, blue for DAPI and grey for dCas9. Scale bar: 50 um. FIG. 3D depicts bisulfite sequencing of neurons in FIG. 3C. […] Shown is the mean percentage±SD of two biological replicates.
FIGS. 11A-11L depict targeted demethylation of BDNF promoter IV by dCas9-Tet1 in neurons. […] PAM for each gRNA is highlighted by a red box. […] Note that cultured neurons were treated with AraC on DIV2 to halt cell division in glial cells and neural progenitors. […] FIG. 11C provides EDU labeling analysis for the mouse primary neurons over the course of KCl treatment for 24 hrs. Note that extremely few EDU positive cells were observed. Stained in red for EDU, green for MAP2 and DAPI for nuclei. Scale bar: 500 um. FIG. 11D Upper panel: provides quantification of neuronal density over the course of KCl treatment. The post-mitotic neuron density remains steadily around 4.5×10^4/cm2 over time. Bars represent mean±SD of three experimental replicates. Lower panel: provides quantification of the EDU positive cells over the course of KCl treatment. Less than 2% of the cells are EDU-positive over 24 hrs. Bars represent mean±SD of three experimental replicates. FIG. 11E provides confocal micrographs of BDNF induction by ectopic expression of dCas9-Tet1 and a set of 4 gRNAs targeting BDNF promoter IV. Stained in green for BDNF, magenta for MAP2, red for Cherry and blue for DAPI. Note that the lentiviral infection efficiency is close to 100% in these neurons. Scale bar: 50 um. […] Bars represent mean±SD of three experimental replicates. […] FIG. 11J depicts DIV3 mouse cortical neurons were treated with ABT (50 uM) for 6 hours and then treated with KCl (50 mM) for 6-hour before harvest for RT-qPCR analysis. Bars represent mean±SD of three experimental replicates. FIG. 11K depicts DIV3 mouse cortical neurons were treated with 2-Hydroxyglutarate (10 mM) for 2 hours and then treated with KCl (50 mM) for 6-hour before harvest for RT-qPCR analysis. Bars represent mean±SD of three experimental replicates. FIG. 11L depicts DIV3 mouse cortical neurons derived from wild-type or Tet1 knockout E17.5 embryos were subject to time course KCl treatment experiments (6, 9 and 12 h). Bars represent mean±SD of three experimental replicates.
DNA replication-independent active demethylation has been proposed to operate in post-mitotic neurons (Guo et al., 2011; Martinowich et al., 2003). To test whether active demethylation can be induced in post-mitotic neurons, we applied the dCas9-Tet1 system to study the regulation of the BDNF gene. BDNF expression can be induced by neuronal activity accompanied by demethylation of its promoter IV (Chen et al., 2003; Martinowich et al., 2003). We designed 4 gRNAs targeting 11 CpGs in BDNF promoter IV (FIG. 11A) to determine whether dCas9-Tet1 can activate BDNF by inducing demethylation of this promoter (FIG. 3A). Mouse cortical neurons were isolated from E17.5 embryos and cultured for two days in vitro (DIV2) following a well-established experimental procedure for producing primary neuronal culture (Ebert et al., 2013). […] Neurons at day 3 in culture (DIV3) were infected with lentiviral vectors expressing dCas9-Tet1 with or without the 4 gRNAs at almost 100% transduction efficiency (FIG. 11E). At 48-hour post infection some of the cultures were treated with KCl to induce neuronal activity. […] We performed bisulfite sequencing to examine the methylation state of BDNF promoter IV. […]

[1] = with 4 gRNAs targeting BDNF promoter IV, DIV3 neurons, lentiviral infection 2 days

Substance	induction of BDNF expression [1]	induction of BDNF expression (in the absence of gRNAs, DIV3 neurons, lentiviral infection 2 days)	induction of BDNF expression (with each individual gRNA targeting BDNF promoter IV)
dC-dT: dCas9 fused to an inactive mutant form of Tet1 (H1672Y, D1674A), SEQ ID NO: 160	no induction	–	–
dCas9-Tet1: catalytically inactive Cas9 (dCas9) fused through NLS to the Tet1 catalytic domain, SEQ ID NO: 159; lentivirally expressed with gRNAs	about 6 fold	less than 2 fold	2-3 fold
